pKi: −log10 of the molar value.

The target in this test is NS3 (Hepatitis C virus, UniProt A3EZJ3). In words: Inhibition of Hepatitis C virus NS3 serine protease. Set-up: species or system Hepacivirus hominis.
Sequence of NS3 (A3EZJ3 whole entry): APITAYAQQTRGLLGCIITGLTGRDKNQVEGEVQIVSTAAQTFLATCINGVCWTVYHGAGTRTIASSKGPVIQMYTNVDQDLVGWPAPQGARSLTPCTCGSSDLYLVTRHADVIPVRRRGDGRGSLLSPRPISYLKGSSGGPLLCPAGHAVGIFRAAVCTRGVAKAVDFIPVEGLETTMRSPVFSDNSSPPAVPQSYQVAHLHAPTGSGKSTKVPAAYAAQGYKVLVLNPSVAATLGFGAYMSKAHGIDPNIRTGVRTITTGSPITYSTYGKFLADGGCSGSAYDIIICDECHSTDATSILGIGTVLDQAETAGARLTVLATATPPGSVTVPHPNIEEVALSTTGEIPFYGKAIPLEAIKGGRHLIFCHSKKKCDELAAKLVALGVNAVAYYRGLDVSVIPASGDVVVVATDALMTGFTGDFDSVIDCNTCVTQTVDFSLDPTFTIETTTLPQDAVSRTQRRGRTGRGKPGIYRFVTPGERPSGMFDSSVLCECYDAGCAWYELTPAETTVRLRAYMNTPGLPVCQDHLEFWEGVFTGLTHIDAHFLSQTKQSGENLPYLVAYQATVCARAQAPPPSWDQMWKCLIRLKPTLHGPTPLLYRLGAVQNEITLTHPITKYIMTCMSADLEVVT

Consider `C=CCOC(=O)CNC(=O)C(=O)C(CCC)NC(=O)[C@@H]1CN(Cc2ccc(Cl)c(Cl)c2)C(=O)N1C(=O)[C@@H](NC(=O)[C@@H](NC(=O)[C@H](CCC(=O)OC(C)(C)C)NC(=O)[C@H](CCC(=O)OC(C)(C)C)NC(C)=O)C(C)C)C(C)C` (stereo partly specified), for which the pKi (commonly −log10 of the Ki, conventionally taken in molar units) is less than 4.00.
In the case of `C=CCOC(=O)CNC(=O)C(=O)C(CCC)NC(=O)[C@@H]1CN(Cc2ccccc2)C(=O)N1C(=O)[C@@H](NC(=O)[C@@H](NC(=O)[C@H](CCC(=O)OC(C)(C)C)NC(=O)[C@H](CCC(=O)OC(C)(C)C)NC(C)=O)C(C)C)C(C)C` (stereo partly specified) it was less than 4.00; in that of `C=CCOC(=O)CNC(=O)C(=O)[C@H](CCC)NC(=O)[C@@H]1CN(Cc2ccc(Cl)c(Cl)c2)C(=O)N1C(=O)[C@@H](NC(=O)[C@@H](NC(=O)[C@H](CCC(=O)O)NC(=O)[C@H](CCC(=O)O)NC(C)=O)C(C)C)C(C)C`, 6.51; in that of `C=CCNC(=O)C(=O)[C@H](CCC)NC(=O)[C@@H]1CN(CC(=O)OCC)C(=O)N1C(=O)[C@@H](NC(=O)[C@@H](NC(=O)[C@H](CCC(=O)O)NC(=O)[C@H](CCC(=O)O)NC(C)=O)C(C)C)C(C)C`, 5.40.
In the case of `C=CCNC(=O)C(=O)[C@H](CCC)NC(=O)[C@@H]1CNC(=O)N1C(=O)[C@@H](NC(=O)[C@@H](NC(=O)[C@H](CCC(=O)O)NC(=O)[C@H](CCC(=O)O)NC(C)=O)C(C)C)C(C)C` it was 4.34; in that of `C=CCNC(=O)C(=O)[C@H](CCC)NC(=O)[C@@H]1CNC(=O)N1C(=O)[C@@H](NC(=O)[C@@H](NC(=O)[C@H](CCC(=O)OC(C)(C)C)NC(=O)[C@H](CCC(=O)OC(C)(C)C)NC(C)=O)C(C)C)C(C)C`, 4.16; in that of `C=CCOC(=O)CNC(=O)C(=O)[C@H](CCC)NC(=O)[C@@H]1CN(Cc2ccccc2)C(=O)N1C(=O)[C@@H](NC(=O)[C@@H](NC(=O)[C@H](CCC(=O)O)NC(=O)[C@H](CCC(=O)O)NC(C)=O)C(C)C)C(C)C`, 6.00.
In the case of `C=CCNC(=O)C(=O)C(CCC)NC(=O)[C@@H]1CN(CC(=O)OCC)C(=O)N1C(=O)[C@@H](NC(=O)OC(C)(C)C)C(C)C` (stereo partly specified) it was 3.82; in that of `C=CCNC(=O)C(=O)[C@H](CCC)NC(=O)[C@@H]1CN(Cc2ccccc2)C(=O)N1C(=O)[C@@H](NC(=O)[C@@H](NC(=O)[C@H](CCC(=O)O)NC(=O)[C@H](CCC(=O)O)NC(C)=O)C(C)C)C(C)C`, 6.00.
Compound `C=CCNC(=O)C(=O)[C@H](CCC)NC(=O)[C@@H]1CN(Cc2ccccc2)C(=O)N1C(=O)[C@@H](NC(=O)[C@@H](NC(=O)[C@H](CCC(=O)OC(C)(C)C)NC(=O)[C@H](CCC(=O)OC(C)(C)C)NC(C)=O)C(C)C)C(C)C` showed a pKi of 4.21.
The compound `C=CCNC(=O)C(=O)[C@H](CCC)NC(=O)[C@@H]1CN(CC(=O)OCC)C(=O)N1C(=O)[C@@H](NC(=O)[C@@H](NC(=O)[C@H](CCC(=O)OC(C)(C)C)NC(=O)[C@H](CCC(=O)OC(C)(C)C)NC(C)=O)C(C)C)C(C)C` had a pKi of 4.52. Against the preceding compound, the pKi is 0.31 log units higher.

Source of the values: ChEMBL document CHEMBL1137058, “Novel 2-oxoimidazolidine-4-carboxylic acid derivatives as hepatitis C virus NS3-4A serine protease inhibitors: synthesis, activity, and X-ray crystal structure of an enzyme inhibitor complex” (Bioorg Med Chem Lett, 2004).
